Source: patent US6365593B2, “Methylxanthines in the diagnosis and treatment of autistic disorder” (Repligen Corporation, priority 2000, dated 2002)
Entries after “also recorded” stand apart in the source; their conditions may differ.

Tests used:
[1] = test system: 7-MX levels in the first morning urine; experiment: 7-MX levels in first morning urine of autistic subjects after secretin infusion (time course); assay type: in vivo, human
Protocol: Urine samples from individuals, e.g., children, suspected of having autistic disorder are collected in 50 ml polypropylene centrifuge tubes and stored at a temperature below freezing, e.g., at −20° C. The samples are later thawed and centrifuged before pre-purification by solid phase extraction using e.g., SEP-PAK™ columns. The following is a suitable protocol for SEP-PAK™ extraction of one urine sample:
Suitable HPLC conditions to detect and analyze the methylxanthines and xanthines in a urine sample are as follows:
Samples are normalized for urinary output and variations in dilution using a standard creatinine assay. A portion of each sample is assayed to determine the creatinine content. Each sample is then diluted with water to achieve a standard creatinine concentration of […] in 100 μl of the sample.
Once the urine samples are properly pretreated, the level of methylxanthine, e.g., 7-MX, or xanthine is determined. […]
Samples of urine from autistic and non-autistic subjects were collected and analyzed for the presence of various metabolites before and after secretin treatment. Urine samples were analyzed by HPLC with a 4.5×100 mm C18 column detected at 215 nm and 280 nm. […]
The 7-MX levels in the first morning urine of autistic subjects after secretin treatment were monitored. […]

7-MX level in urine = experiment: Double blind study: urinary 7-MX in autistic children after secretin or placebo; assay type: in vivo, human; details: groups 0 and 1, basal vs one week after secretin
From the text: The urine samples of a double blind study on the effects of secretin on autistic children were available for further investigation on the changes of 7-MX after secretin treatment. Participants were divided into two groups. One group received secretin first, then placebo, and the other group received placebo first, then secretin. Three samples were collected for each subject: (i) basal urine, (ii) one week after secretin, (iii) one week after placebo. The changes of 7-MX level are shown in FIG. 8 (changes of 7-MX levels in double blind group “0”) and FIG. 9 (changes of 7-MX in double blind group “1”) for the two groups of patients. […] Only one subject in group 1 was an exception, where the basal 7-MX level was 10 times higher than the average.

[2] = test system: symptoms of autistic disorder; details: individuals diagnosed with autistic disorder; cited from earlier work

secretin: a hormone shown to improve symptoms of autistic disorder; stimulates secretion of pancreatic bicarbonate fluid
change of 7-MX level (HPLC peak RT5.5) in urine after secretin treatment ([1]; autistic children, first morning urine, after secretin infusion): increase in size after secretin treatment in some children; also recorded: increases during the first week after secretin infusion and then decreases; also recorded: increased, and then decreased after about one week | dose dependence of urinary 7-MX level after secretin ([1]; one autistic child, first treatment about 4 μg, second about 15 μg secretin): a higher dose of secretin would lead to a higher level of 7-MX in the urine | change of urinary 7-MX level one week after secretin (7-MX level in urine): increased or stayed at the same level, but did not decrease; also recorded: increased the excretion of 7-MX and other methylxanthines | effect on symptoms of autistic disorder [2]: improve symptoms
